# Data published in patent publication US20230151025A1, “SUBSTITUTED THIAZOLOPYRIDINES, SALTS THEREOF AND THEIR USE AS HERBICIDALLY ACTIVE SUBSTANCES” (Bayer Aktiengesellschaft, priority 2020, published 2023).
# Legend:
# Type in all cases: in vivo
# [1] = system: Alopecurus myosuroides (ALOMY); assay: Herbicidal post-emergence action (D), 320 g/ha; conditions: ca. 3 weeks
# Procedure, shortened: (§1)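 Weeds sown in sandy loam and greenhouse-grown for 2 to 3 weeks, then sprayed at single-leaf stage with WP or EC formulations in water plus 0.5% additive at 600 l water/ha. After ca. 3 weeks, injury scored visually versus untreated controls: 0% = as control, 100% = plants dead.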
# [2] = system: Polygonum convolvulus (POLCO); assay: Herbicidal post-emergence action (D), 320 g/ha; conditions: ca. 3 weeks
# Procedure, shortened: as §1
# [3] = system: Echinochloa crus-galli (ECHCG); assay: Herbicidal post-emergence action (D), 320 g/ha; conditions: ca. 3 weeks
# Procedure, shortened: as §1
# Veronica persica (VERPE) [4] = assay: Herbicidal post-emergence action (D), 320 g/ha; conditions: ca. 3 weeks
# Procedure, shortened: as §1
# [5] = system: Amaranthus retroflexus (AMARE); assay: Herbicidal post-emergence action (D), 320 g/ha; conditions: ca. 3 weeks
# Procedure, shortened: as §1
# Setaria viridis (SETVI) [6] = assay: Herbicidal pre-emergence action (C), 320 g/ha; conditions: ca. 3 weeks
# Procedure, shortened: (§2)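 Visual percent damage relative to untreated controls was scored about 3 weeks after treatment, where 100% means plants died off and 0% means like controls. Compounds, as WP or EC with 0.5% additive, were applied in 600 l water/ha to the soil covering sown seeds.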
# [7] = system: Alopecurus myosuroides (ALOMY); assay: Herbicidal pre-emergence action (C), 320 g/ha; conditions: ca. 3 weeks
# Procedure, shortened: as §2
# [8] = system: Echinochloa crus-galli (ECHCG); assay: Herbicidal pre-emergence action (C), 320 g/ha; conditions: ca. 3 weeks
# Procedure, shortened: as §2
# Veronica persica (VERPE) [9] = assay: Herbicidal pre-emergence action (C), 320 g/ha; conditions: ca. 3 weeks
# Procedure, shortened: as §2
# Lolium rigidum (LOLRI) [10] = assay: Herbicidal pre-emergence action (C), 320 g/ha; conditions: ca. 3 weeks
# Procedure, shortened: as §2
# [11] = system: Amaranthus retroflexus (AMARE); assay: Herbicidal pre-emergence action (C), 320 g/ha; conditions: ca. 3 weeks
# Procedure, shortened: as §2
# [12] = system: Digitaria sanguinalis (DIGSA); assay: Herbicidal pre-emergence action (A), 1280 g/ha; conditions: visual grading after ca. 3 weeks vs untreated controls, 100% = plants have died off, 0% = as control plants
# Procedure, shortened: (§3)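 Visual percent damage scored about 3 weeks after treatment relative to untreated pots (100% = complete kill, 0% = no effect). Compounds, as wettable powder or emulsifiable concentrate plus 0.5% additive in 600 l water/ha, were applied to the soil surface over freshly sown seeds in sandy loam, greenhouse-grown.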
# [13] = system: Kochia scoparia (KCHSC; Bassia scoparia); assay: Herbicidal pre-emergence action (A), 1280 g/ha; conditions: visual grading after ca. 3 weeks vs untreated controls
# Procedure, shortened: as §3
# [14] = system: Abutilon theophrasti (ABUTH); assay: Herbicidal pre-emergence action (A), 1280 g/ha; conditions: visual grading after ca. 3 weeks vs untreated controls, 100% = plants have died off, 0% = as control plants
# Procedure, shortened: as §3
# Poa annua (POAAN) = assay: Herbicidal pre-emergence action (A), 1280 g/ha; conditions: visual grading after ca. 3 weeks vs untreated controls, 100% = plants have died off, 0% = as control plants
# Procedure, shortened: as §3
# Setaria viridis (SETVI) [15] = assay: Herbicidal pre-emergence action (A), 1280 g/ha; conditions: visual grading after ca. 3 weeks vs untreated controls
# Procedure, shortened: as §3
# [16] = system: Alopecurus myosuroides (ALOMY); assay: Herbicidal pre-emergence action (A), 1280 g/ha; conditions: visual grading after ca. 3 weeks vs untreated controls, 100% = plants have died off, 0% = as control plants
# Procedure, shortened: as §3
# [17] = system: Echinochloa crus-galli (ECHCG); assay: Herbicidal pre-emergence action (A), 1280 g/ha; conditions: visual grading after ca. 3 weeks vs untreated controls, 100% = plants have died off, 0% = as control plants
# Procedure, shortened: as §3
# Veronica persica (VERPE) [18] = assay: Herbicidal pre-emergence action (A), 1280 g/ha; conditions: visual grading after ca. 3 weeks vs untreated controls
# Procedure, shortened: as §3
# Lolium rigidum (LOLRI) [19] = assay: Herbicidal pre-emergence action (A), 1280 g/ha; conditions: visual grading after ca. 3 weeks vs untreated controls, 100% = plants have died off, 0% = as control plants
# Procedure, shortened: as §3
# [20] = system: Matricaria inodora (MATIN); assay: Herbicidal pre-emergence action (A), 1280 g/ha; conditions: visual grading after ca. 3 weeks vs untreated controls
# Procedure, shortened: as §3
# [21] = system: Amaranthus retroflexus (AMARE); assay: Herbicidal pre-emergence action (A), 1280 g/ha; conditions: visual grading after ca. 3 weeks vs untreated controls
# Procedure, shortened: as §3
# Stellaria media (STEME) = assay: Herbicidal pre-emergence action (A), 1280 g/ha; conditions: visual grading after ca. 3 weeks vs untreated controls
# Procedure, shortened: as §3
# [22] = system: Digitaria sanguinalis (DIGSA); assay: Herbicidal pre-emergence action (C), 320 g/ha; conditions: ca. 3 weeks
# Procedure, shortened: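 Weed and crop seeds sown in sandy loam; WP or EC formulations applied pre-emergence to the soil surface as aqueous suspension/emulsion with 0.5% additive at 600 l water/ha. Greenhouse-grown under optimum conditions; damage visually scored after ca. 3 weeks versus untreated controls (0% = as control, 100% = plants dead).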
Structure (SMILES),herbicidal effect ALOMY [1] [%],herbicidal effect POLCO [2] [%],herbicidal effect ECHCG [3] [%],herbicidal effect VERPE (Veronica persica (VERPE) [4]) [%],herbicidal effect AMARE [5] [%],herbicidal effect SETVI (Setaria viridis (SETVI) [6]) [%],herbicidal effect ALOMY [7] [%],herbicidal effect ECHCG [8] [%],herbicidal effect VERPE (Veronica persica (VERPE) [9]) [%],herbicidal effect LOLRI (Lolium rigidum (LOLRI) [10]) [%],herbicidal effect AMARE [11] [%],"DIGSA, herbicidal effect in percent (%) [12] [%]",herbicidal effect KCHSC [13] [%],"ABUTH, herbicidal effect in percent (%) [14] [%]","POAAN, herbicidal effect in percent (%) (Poa annua (POAAN))",herbicidal effect SETVI (Setaria viridis (SETVI) [15]) [%],"ALOMY, herbicidal effect in percent (%) [16] [%]","ECHCG, herbicidal effect in percent (%) [17] [%]",herbicidal effect VERPE (Veronica persica (VERPE) [18]) [%],"LOLRI, herbicidal effect in percent (%) (Lolium rigidum (LOLRI) [19])",further results
Cc1cc2scnc2nc1-c1sccc1Cl [Example I-137],90,80,90,80,90,100,100,100,90,100,90,100,100,100,100,100,100,100,100,100,herbicidal effect MATIN [20]: 90%; herbicidal effect AMARE [21]: 100%; herbicidal effect STEME (Stellaria media (STEME)): 100%; herbicidal effect DIGSA [22]: 100%
Cc1cc2scnc2nc1-c1ccccc1 [Example I-041],90,90,100,90,90,100,100,100,90,100,90,100,100,90,100,100,100,100,100,100,herbicidal effect MATIN [20]: 100%; herbicidal effect AMARE [21]: 100%; herbicidal effect STEME (Stellaria media (STEME)): 100%; herbicidal effect DIGSA [22]: 100%
CCc1cc2scnc2nc1-c1ccccc1F [Example I-023],90,90,90,90,100,100,100,100,90,100,80,100,100,90,100,100,100,100,100,100,herbicidal effect MATIN [20]: 100%; herbicidal effect AMARE [21]: 100%; herbicidal effect STEME (Stellaria media (STEME)): 90%; herbicidal effect DIGSA [22]: 100%
Fc1ccccc1-c1nc2ncsc2cc1Cl [Example I-017],90,90,80,90,100,100,100,100,90,100,90,100,100,90,100,100,100,100,90,100,herbicidal effect MATIN [20]: 100%; herbicidal effect AMARE [21]: 100%; herbicidal effect STEME (Stellaria media (STEME)): 100%; herbicidal effect DIGSA [22]: 100%
